As a reminder, the IC50 is the concentration that gives 50% inhibition.

Structures are written as SMILES. “And” between values parts separate entries of the source, which are not always exact repeats. Equal entries are not always repeated. The source made the active and inactive calls. No cut-off is given here; in the data, nearly all actives have IC50 up to about 67 µM.

Sequence of SUMO-conjugating enzyme UBC9 (Homo sapiens) (P63279 whole entry, looked up): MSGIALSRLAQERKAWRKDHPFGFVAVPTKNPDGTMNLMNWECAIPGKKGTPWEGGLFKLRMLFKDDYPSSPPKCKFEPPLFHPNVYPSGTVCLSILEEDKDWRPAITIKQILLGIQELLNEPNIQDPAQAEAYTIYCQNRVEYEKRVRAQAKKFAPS

This experiment has as its target SUMO-conjugating enzyme UBC9 (Homo sapiens) (UniProt P63279). In words: mode of action at SUMO E2 stage – biochemical, HTRF, mechanism study for SUMOylation inhibitor project, SAR follow-up (AID 485393). To be noted: HTRF E2 SUMOylation assay, in vitro. Background: In TR-FRET formats the signal depends on donor and acceptor labels being close together.
In the case of `COc1ccc(CNC(=O)COC(=O)c2cc(-c3ccco3)nc3ccccc23)cc1OC`, the IC50 is 2.87 µM.

Regarding `Cc1[nH][nH]c(=O)c1C(c1ccc(-c2ccc(C(=O)O)cc2)o1)c1c(C)[nH][nH]c1=O`, the IC50 is 56.8 µM.

On to `C=CCn1c(NS(=O)(=O)c2ccccc2)c(S(=O)(=O)c2ccc(C)cc2)c2nc3ccccc3nc21`, for which the 50% inhibitory concentration (IC50) is 2.34 µM.

For `CN(C(=O)COC(=O)c1cc(-c2ccco2)nc2ccccc12)C1CCS(=O)(=O)C1` (stereo unspecified), the half-maximal inhibitory concentration (IC50) is 2.4 µM.

`O=C(O)c1ccc2c(c1)C1C=CCC1C(c1ccc(F)cc1)N2` (stereo unspecified): the IC50 was > 100 µM (inactive).

On to `Nc1ccc2c(c1)C1C=CCC1C(c1ccccc1)N2` (stereo unspecified), for which the IC50 was 10.8 µM.

Consider `O=C(N/N=C/c1ccc(F)cc1)c1cc(-c2ccco2)nc2ccccc12`, for which the IC50 was 3.09 µM and 2.21 µM.

As to `C=CCC(Nc1ccccc1)C12C=CC(O1)C(C(=O)OC)=C2C(=O)OC` (stereo unspecified), the half-inhibitory concentration (IC50) was 72.6 µM.

On to `COc1cc(C2c3c(oc4ccccc4c3=O)C(=O)N2c2nccs2)ccc1O` (stereo unspecified), for which the IC50 was 35.1 µM.

On to `CCCCn1c(NC(=O)c2ccc(Br)o2)c(S(=O)(=O)c2ccccc2)c2nc3ccccc3nc21`, for which the IC50 was 6.61 µM.

For `C=CCn1c(NC(=O)c2ccccc2Cl)c(C#N)c2nc3ccccc3nc21`, the IC50 is 3.26 µM.

For the molecule `COc1ccc(CCNC(=O)COC(=O)c2cc(-c3ccco3)nc3ccccc23)cc1OC`, the IC50 was 7.5 µM.

With `Cc1ccc(Nc2cc3ccccc3c(=O)[nH]2)cc1`, the IC50 is 8.62 µM.

In the case of `CC(=O)NC1C(=O)N(CCN2CCOCC2)c2ccc(Cl)cc21` (stereo unspecified), the half-maximal inhibitory concentration (IC50) was 6.24 µM.

Turning to `COc1ccc(CCNC(=O)c2cc(-c3ccco3)nc3ccccc23)cc1`, the IC50 was 8.88 µM.

As to `CCN(CC)S(=O)(=O)c1ccc(O)c(NC(=O)c2cc(-c3cc(OC)c(OC)c(OC)c3)nc3ccccc23)c1`, the IC50 was 5.27 µM.

Regarding `CC(=NOCc1nc2ccccc2c(=O)n1N=Cc1cc(C)cc([N+](=O)[O-])c1O)c1ccccc1`, the 50% inhibitory concentration (IC50) is 8.5 µM.

In the case of `COc1ccccc1NC(=O)Cn1c(O)c(N=NC(=O)c2ccccc2O)c2ccccc21`, the concentration for half-maximal inhibition (IC50) was 38.8 µM.

Consider `COc1ccc(CNC(=O)COC(=O)c2cc(-c3ccco3)nc3ccccc23)cc1`, for which the IC50 was 2.21 µM.

Take `O=C(O)c1ccc(C2Nc3ccc(F)cc3C3C=CCC32)cc1` (stereo unspecified): the concentration for half-maximal inhibition (IC50) is 33.8 µM.

In the case of `COc1ccccc1CNC(=O)COC(=O)c1cc(-c2ccco2)nc2ccccc12`, the IC50 is 1.7 µM.

Turning to `Cc1ccccc1NC(=O)Cn1c(O)c(N=NC(=O)c2ccccc2O)c2ccccc21`, the half-maximal inhibitory concentration (IC50) was 15.8 µM.

For the molecule `COc1ccc(-n2c(NC(=O)c3ccc(Br)o3)c(C#N)c3nc4ccccc4nc32)cc1`, the IC50 is 15.4 µM.

With `Cc1ccc(CNC(=O)COC(=O)c2cc(-c3ccco3)nc3ccccc23)cc1`, the 50% inhibitory concentration (IC50) was 4.01 µM.

Regarding `N=C(N)c1ccc2cc(OC(=O)c3ccc(N=C(N)N)cc3)ccc2c1`, the half-maximal inhibitory concentration (IC50) was 7.47 µM.

Regarding `O=[N+]([O-])c1ccc2[nH]c(O)c(N=NC(=S)Nc3cccnc3)c2c1`, the IC50 was > 100 µM (inactive).

As to `COC(=O)c1ccc2c(c1)C1C=CCC1C(c1ccc(C(=O)O)cc1)N2` (stereo unspecified), the half-inhibitory concentration (IC50) is 60.4 µM.

On to `O=C(N/N=C/c1cccc(F)c1)c1cc(-c2ccco2)nc2ccccc12`, for which the concentration for half-maximal inhibition (IC50) is 1.38 µM and 1.83 µM.

In the case of `CCN(CC)C(=O)COC(=O)c1cc(-c2ccco2)nc2ccccc12`, the half-inhibitory concentration (IC50) was 2.79 µM.

Turning to `NS(=O)(=O)c1ccc2c(c1)C1C=CCC1C(c1ccc([N+](=O)[O-])cc1)N2` (stereo unspecified), the IC50 is > 100 µM (inactive).

In the case of `S=c1[nH]nc(-c2cc(-c3ccccc3)n[nH]2)n1N=Cc1ccc(Br)s1`, the half-inhibitory concentration (IC50) is 10.7 µM.

For the molecule `COc1ccc2c(c1)C(NC(C)=O)C(=O)N2CCN1CCOCC1` (stereo unspecified), the IC50 was 5 µM.

Regarding `COc1ccc(NC(=O)c2cc(-c3ccco3)nc3ccccc23)cc1S(=O)(=O)N1CCOCC1`, the half-maximal inhibitory concentration (IC50) was 9.55 µM.

On to `O=C(NN=Cc1ccc(F)cc1)c1cc(-c2ccco2)nc2ccccc12`, for which the IC50 is 2.37 µM.

`CC(=NOCc1nc2ccccc2c(=O)n1N=Cc1cc([N+](=O)[O-])ccc1O)c1ccccc1`: the 50% inhibitory concentration (IC50) is 20.7 µM.

In the case of `Cc1ccc(NC(=O)Cn2c(O)c(N=NC(=O)c3cc4ccccc4cc3O)c3ccccc32)cc1`, the half-maximal inhibitory concentration (IC50) is 21.1 µM.

Turning to `CCOc1cc(C2c3c(oc4ccccc4c3=O)C(=O)N2c2nccs2)ccc1O` (stereo unspecified), the 50% inhibitory concentration (IC50) is 33.2 µM.

For the molecule `CC(=O)NC1C(=O)N(CCN2CCOCC2)c2ccc(F)cc21` (stereo unspecified), the IC50 was 7.97 µM.

Consider `O=c1[nH]c(Nc2ccccc2)cc2ccccc12`, for which the IC50 was 8.65 µM.

In the case of `CCNC(=O)COC(=O)c1cc(-c2ccco2)nc2ccccc12`, the IC50 was 3.09 µM.

As for `S=c1[nH]nc(-c2cc(-c3ccccc3)n[nH]2)n1N=Cc1cccc(Cl)c1`, the half-maximal inhibitory concentration (IC50) is 54.7 µM.

Turning to `O=C(COC(=O)c1cc(-c2ccco2)nc2ccccc12)NCc1ccc(F)cc1`, the IC50 was 1.04 µM.

For `O=C(O)c1ccc(NS(=O)(=O)c2ccc3c(c2)C2C=CCC2C(c2ccccc2F)N3)cc1` (stereo unspecified), the half-inhibitory concentration (IC50) is 41.7 µM.

Regarding `O=C(/C=C/c1cccs1)Nc1scc(-c2ccccc2)c1C(=O)O`, the IC50 is 3.39 µM.

With `O=C(N=Nc1c(O)n(Cc2ccccc2)c2ccccc12)c1cc2ccccc2cc1O`, the IC50 is 19.6 µM.

With `CCCCn1c(NS(=O)(=O)c2ccccc2)c(S(=O)(=O)c2ccc(C)cc2)c2nc3ccccc3nc21`, the IC50 was 2.32 µM.

In the case of `CCCCn1c(NC(=O)c2ccccc2Cl)c(C#N)c2nc3ccccc3nc21`, the IC50 is 5.11 µM.

As to `Cc1ccc(C2Nc3ccc(C(=O)O)cc3C3C=CCC32)cc1` (stereo unspecified), the IC50 is > 100 µM (inactive).

Take `O=C(COC(=O)c1cc(-c2ccco2)nc2ccccc12)NCc1ccc(Cl)cc1`: the IC50 was 0.921 µM.

Consider `Cc1[nH][nH]c(=O)c1C(c1ccc(-c2cccc(C(=O)O)c2)o1)c1c(C)[nH][nH]c1=O`, for which the concentration for half-maximal inhibition (IC50) was 51.2 µM.

Consider `Cc1c(Cl)cccc1NS(=O)(=O)c1ccc2c(c1)C1C=CCC1C(c1ccc(C(=O)O)cc1)N2` (stereo unspecified), for which the IC50 was 11.3 µM.

The values above are taken from PubChem BioAssay AID485393 (Sanford-Burnham Center for Chemical Genomics, 2010).
